According to patent US20260283924A1, “TOPICAL COMPOSITIONS FOR PROMOTING HAIR GROWTH” (ESTETRA SRL, priority 2023, published 2026):

Columns and labels:
[1] = system: Female wild-type (C57BL/6J) mice; experiment: In vivo LPS-induced delayed wound healing model: uterine weight and morphology (systemic effect), Example 4; conditions: topical over wounds, 60 μl total, day -1 to day 4; uteri at day 5
[2] = Antioxidant activity measured with Skin-Biosense sensor; conditions: H2O2 5 mM
Experimental: The antioxidant activity of E4 was evaluated using the Skin-Biosense® sensor, a technology developed by Qima Life Sciences (Gencay, France). This electrochemical sensor measures the electron transfer between two conductive elements: the sensor and a solution of H2O2. The H2O2 solution is used as a marker for the determination of the detoxification power: as H2O2 is one of the most oxidizing non-radical species, any molecule capable of decreasing its concentration can be considered as an antioxidant. When a sample is in the presence of H2O2, all its antioxidative species spontaneously react with it and decrease its quantity. As the area of the peak measured by the sensor is directly proportional to H2O2 concentration, the detoxifying activity of a compound is evaluated by its modulation of the peak area.
H2O2 5 mM in electrolytic ethanol solution was mixed with E4 in electrolytic ethanol solutions at several concentrations (0.16-0.5-1.6-5-16-50 mM), and the H2O2 oxidation peaks area were measured. The power of the antioxidant activity was calculated by comparing the peak area of the H202 solution with the peak area of the H2O2 solution mixed with an E4 solution.

[3] = system: human anagen VI scalp HFs; experiment: LDH release into the medium (cytotoxicity), healthy donor hair follicle organ culture; format: cell-based; conditions: all tested concentrations (300 nM, 3 μM, 30 μM)
Experimental: 12-44 full-length frontotemporal hair follicles (HF) were obtained from four healthy human female donors >50 years old. […] Donor 2:29; Donor 3:44; Donor 4:32). After microdissection from skin as described in the art (Edelkamp et al., Methods Mol Biol, 2020, 2154:105-119; and Langan et al., Exp Dermatol, 2015 December; 24(12):903-1), HFs were placed in adequate culture medium and allowed a 24 h rest period to allow them to recover from the trauma of microdissection. Test substance (either vehicle (0.3% EtOH) or E4 at concentrations of 30 μM, 3 μM or 300 nM) was added to the medium at the end of the 24 h. Total culturing time was 5-9 days depending on the stage of the HFs in the vehicle group. The experimental design for a 6-days HF organ culture experiment is depicted in FIG. 9.
LDH is released from the cytoplasm of damaged cells into the culture medium. Therefore, the cytotoxicity of agents can be estimated based on the activity of LDH present in the culture medium using a colorimetric assay (Cytotoxicity Detection Kit [LDH], Roche) as described (Gherardini et al Int J Cosmet Sci, 2019 April; 41(2):164-182). The measurements were performed on supernatants collected on days respective to each culture and normalized to blank.
For the maximum release, HFs were treated with 1% Triton X 100 in vehicle medium at 37° C. for 30 minutes in order to induce maximum LDH release into the medium.

[4] = system: terminal and intermediate hair follicles from affected and non-affected areas of FPHL donors; experiment: Female pattern hair loss (FPHL) donor hair follicle organ culture (ex vivo model), Example 9; format: cell-based, human; conditions: 3 μM; for microscopic hair cycle staging: anagen: HFs from non-affected (terminal) and affected (terminal and intermediate) scalp, preliminary, 2 donors; for hair matrix keratinocytes proliferation: terminal HFs from non-affected and affected scalp; for versican expression: terminal and intermediate HFs from non-affected scalp
From the text: Example 7 is repeated for female donor subjects suffering from pattern hair loss (FPHL), with a few modifications. In brief, terminal and intermediate hair follicles (HF) from affected (vertex) and non-affected (occipital) areas were obtained from female donors diagnosed to have FPHL (FIG. 34). After microdissection from skin as described in the art (Edelkamp et al., Methods Mol Biol, 2020, 2154:105-119; and Langan et al., Exp Dermatol, 2015 December; 24(12):903-1), HFs are placed in adequate culture medium and allowed a 24 h rest period to allow them to recover from the trauma of microdissection. Test substance (either vehicle (0.03% EtOH) or E4 at concentrations of 3 μM) was added to the medium at the end of the 24 h. Total culturing time was 3-5 days depending on the stage of the HFs in the vehicle group. The experimental design is depicted in FIG. 35. The same parameters as those described in Example 7 were investigated.
[…] Three additional donors still have to be collected.

[5] = intermediate HFs from affected scalp
[6] = intermediate HFs from non-affected area
[7] = intermediate HFs from non-affected scalp
[8] = intermediate HFs from non-affected scalp, listed as estetrol
[9] = terminal HFs from non-affected scalp
[10] = terminal HFs from non-affected scalp, listed as estetrol

- dermal papilla inductivity (versican expression and alkaline phosphatase activity) ([4]; HFs from affected area): not strikingly altered
- alkaline phosphatase activity (dermal papilla inductivity) ([4]; terminal and intermediate HFs from non-affected area): tendential increase
SMILES: C[C@]12CC[C@@H]3c4ccc(O)cc4CC[C@H]3[C@@H]1[C@@H](O)[C@@H](O)[C@@H]2O [Formulation E4, 1,3,5 (10)-estratrien-3,15alpha,16alpha,17beta-tetrol]
- uterine weight and morphology [1]: affects uterine weight in a dose-dependent manner
- antioxidant activity (in words) ([2]; E4 0.16-50 mM): potent antioxidant activity
- antioxidant activity ([2]; highest E4 concentration, 50000 µM): 100%
- antioxidant activity, mean power ([2]; molar ratio E4/H2O2 of 1): 77.5%
- HF cytotoxicity (LDH release into the medium) [3]: did not induce HF cytotoxicity
- HF cytotoxicity (LDH release into the medium) ([3]; listed as Estetrol): does not induce LDH release into the medium
- hair matrix keratinocytes apoptosis [4]: without affecting hair matrix keratinocytes apoptosis
- microscopic hair cycle staging: anagen [4]: prolonged anagen
- microscopic hair cycle staging: anagen ([4]; listed as estetrol): prolongs anagen
- density of dermal papilla cells [4, 5]: tendentially increased the density
- total number of dermal papilla cells [4, 5]: tendentially increased
- density of dermal papilla cells [4, 6]: tendentially decreases the density
- total number of cells in the dermal cup [4, 6]: increases
- K15 expression, bulge basal layer [4, 7]: tendentially increased K15 expression
- area size of the dermal papilla [4, 7]: tendentially increased
- density of dermal papilla stalk cells [4, 7]: tendentially decreased the density of dermal papilla stalk cells
- total number of cells of the dermal papilla [4, 7]: tendentially increased the total number of cells
- area size of the dermal papilla [4, 8]: increases
- density of dermal papilla stalk cells [4, 8]: tendentially decreased
- total number of cells of the dermal papilla [4, 8]: increases the total DP cell number
- proliferation of K15+ cells, bulge basal layer ([4]; terminal HFs from affected scalp): increased proliferation of K15+ cells
- hair matrix keratinocytes proliferation [4]: tendentially increased hair matrix keratinocytes proliferation
- hair matrix keratinocytes proliferation ([4]; listed as estetrol): tendentially increases hair matrix keratinocytes proliferation
- proliferation of K15+ cells, suprabulbar outer root sheath ([4]; terminal HFs from non-affected and intermediate HFs from affected scalp): increased proliferation of K15+ cells
- density of dermal papilla stalk cells ([4]; terminal HFs from non-affected area): without influencing their density
- K15 expression, suprabulbar outer root sheath [4, 9]: tendentially increased K15 expression
- area size of the dermal papilla stalk [4, 9]: significantly decreased
- number of K15 positive cells, suprabulbar outer root sheath [4, 9]: tendentially increased
- total number of cells in the dermal cup [4, 9]: significantly reduced the total number of cells in the dermal cup
- total number of cells of the dermal papilla stalk [4, 9]: significantly decreased the total number of cells
- area size of the dermal papilla stalk [4, 10]: significantly decreases
- total number of cells in the dermal cup [4, 10]: significantly reduces
- total number of cells of the dermal papilla stalk [4, 10]: significantly decreases the total number
- versican expression [4]: tendentially increased versican expression
- versican expression ([4]; listed as estetrol): tendentially increases versican expression
